In the supplement of paper PMC11451515:

Experiments:
Conditions in all cases: 48 h
SEM cells [1] = assay: AUC of viability dose-response curve (% viability x log10 dose units); higher = less sensitive
Method in brief: (§1)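 Leukemia cells adapted to each medium were seeded in 1536-well plates (500 or 1000 cells/well). They were dosed with library compounds in DMSO at 11 threefold doses, 47 μM to 0.79 nM, for 48 h at 37°C. CellTiter-Glo One luminescence was normalised per plate to DMSO and cell-free wells. Area under the curve was integrated by trapezoidal rule over log10 doses on a four-parameter log-logistic fit; curves exceeding full viability were scaled and curves failing quality control removed.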

NOMO1 [2] = assay: as above
Method in brief: as §1

P12-Ichikawa [3] = assay: as above
Method in brief: as §1

SEM cells [4] = assay: cell viability relative to DMSO control; higher = less cytotoxic
Method in brief: (§2)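 Leukemia cells (NOMO1 or SEM, 500 cells/well; P12-Ichikawa, 1000 cells/well) were seeded in 5 μl in 1536-well plates after at least four passages of adaptation to each medium. They received library compounds in DMSO by pin dosing, 11 threefold points from 47 μM to 0.79 nM. Luminescence with CellTiter-Glo One was read after 48 h at 37°C. Viability is stated per plate relative to DMSO wells, with cell-free wells as background.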

NOMO1 [5] = assay: as above
Method in brief: as §2

P12-Ichikawa [6] = assay: as above
Method in brief: as §2

CCCCC(C)(C)[C@H](O)/C=C/[C@H]1[C@H](O)CC(=O)[C@@H]1C/C=C\CCCC(=O)O
AUC of viability dose-response curve
Conditions | NOMO1 [2] | P12-Ichikawa [3] | SEM cells [1]
HPLM + 10% dialyzed FBS | 437 | 447 | 401
RPMI 5 mM glucose + 10% FBS | 453 | 437 | 407
RPMI 5 mM glucose + 10% dialyzed FBS | 431 | 442 | 403

SEM cells [4], RPMI 5 mM glucose + 10% FBS
Conditions | cell viability [%]
0.000781 µM | 101
0.00234 µM | 123
0.00702 µM | 131
0.0211 µM | 120
0.0632 µM | 119
0.19 µM | 137
0.569 µM | 117
1.71 µM | 130
5.12 µM | 51.5
15.4 µM | 78.2
46.1 µM | 13.4

CNc1nc(Nc2cnn([C@H]3CCN(C4COC4)C[C@@H]3F)c2Cl)ncc1C(F)(F)F
AUC of viability dose-response curve
Conditions | NOMO1 [2] | P12-Ichikawa [3] | SEM cells [1]
HPLM + 10% dialyzed FBS | 316 | 368 | 388
RPMI 5 mM glucose + 10% FBS | 360 | 400 | 276
RPMI 5 mM glucose + 10% dialyzed FBS | 391 | 397 | 363

cell viability [%]
Conditions | NOMO1 [5] | P12-Ichikawa [6] | SEM cells [4]
HPLM + 10% dialyzed FBS, 0.000781 µM | 105 | 91 | 96
HPLM + 10% dialyzed FBS, 0.00234 µM | 105 | 100 | 89.1
HPLM + 10% dialyzed FBS, 0.00702 µM | 115 | 108 | 97.7
HPLM + 10% dialyzed FBS, 0.0211 µM | 116 | 108 | 103
HPLM + 10% dialyzed FBS, 0.0632 µM | 120 | 102 | 109
HPLM + 10% dialyzed FBS, 0.19 µM | 36.8 | 92.9 | 105
HPLM + 10% dialyzed FBS, 0.569 µM | 82.4 | 98.5 | 112
HPLM + 10% dialyzed FBS, 1.71 µM | 35.6 | 53.3 | 93.1
HPLM + 10% dialyzed FBS, 5.12 µM | 39.6 | 24.9 | 37.7
HPLM + 10% dialyzed FBS, 15.4 µM | 36.5 | 30 | 20.9
HPLM + 10% dialyzed FBS, 46.1 µM | 29.5 | 28 | 26.5
RPMI 5 mM glucose + 10% FBS, 0.000781 µM | 97.2 | 93.9 | 103
RPMI 5 mM glucose + 10% FBS, 0.00234 µM | 109 | 106 | 123
RPMI 5 mM glucose + 10% FBS, 0.00702 µM | 110 | 99.6 | 108
RPMI 5 mM glucose + 10% FBS, 0.0211 µM | 118 | 106 | 112
RPMI 5 mM glucose + 10% FBS, 0.0632 µM | 105 | 115 | 85.3
RPMI 5 mM glucose + 10% FBS, 0.19 µM | 107 | 112 | 55.7
RPMI 5 mM glucose + 10% FBS, 0.569 µM | 115 | 115 | 65.5
RPMI 5 mM glucose + 10% FBS, 1.71 µM | 65.4 | 99.1 | 20.1
RPMI 5 mM glucose + 10% FBS, 5.12 µM | 19.3 | 54 | 18.9
RPMI 5 mM glucose + 10% FBS, 15.4 µM | 19.6 | 22.2 | 16.1
RPMI 5 mM glucose + 10% FBS, 46.1 µM | 18 | 39.2 | 17.6
RPMI 5 mM glucose + 10% dialyzed FBS, 0.000781 µM | 98.8 | 100 | 101
RPMI 5 mM glucose + 10% dialyzed FBS, 0.00234 µM | 110 | 103 | 106
RPMI 5 mM glucose + 10% dialyzed FBS, 0.00702 µM | 108 | 110 | 112
RPMI 5 mM glucose + 10% dialyzed FBS, 0.0211 µM | 107 | 120 | 116
RPMI 5 mM glucose + 10% dialyzed FBS, 0.0632 µM | 118 | 115 | 126
RPMI 5 mM glucose + 10% dialyzed FBS, 0.19 µM | 127 | 111 | 106
RPMI 5 mM glucose + 10% dialyzed FBS, 0.569 µM | 103 | 114 | 106
RPMI 5 mM glucose + 10% dialyzed FBS, 1.71 µM | 126 | 93.1 | 73.6
RPMI 5 mM glucose + 10% dialyzed FBS, 5.12 µM | 39.6 | 54.3 | 32
RPMI 5 mM glucose + 10% dialyzed FBS, 15.4 µM | 23.6 | 34.8 | 17.6
RPMI 5 mM glucose + 10% dialyzed FBS, 46.1 µM | 26.5 | 38.1 | 17.1

O=C(O)C(=O)c1cn(Cc2ccccc2)c2ccc(-c3ccc(OC(F)(F)F)cc3)cc12
AUC of viability dose-response curve
Conditions | NOMO1 [2] | P12-Ichikawa [3] | SEM cells [1]
HPLM + 10% dialyzed FBS | 449 | 456 | 451
RPMI 5 mM glucose + 10% FBS | 460 | 471 | 448
RPMI 5 mM glucose + 10% dialyzed FBS | 443 | 466 | 444

cell viability [%]
Conditions | NOMO1 [5] | P12-Ichikawa [6] | SEM cells [4]
HPLM + 10% dialyzed FBS, 0.000781 µM | 101 | 106 | 102
HPLM + 10% dialyzed FBS, 0.00234 µM | 102 | 105 | 126
HPLM + 10% dialyzed FBS, 0.00702 µM | 105 | 109 | 116
HPLM + 10% dialyzed FBS, 0.0211 µM | 107 | 110 | 117
HPLM + 10% dialyzed FBS, 0.0632 µM | 108 | 111 | 107
HPLM + 10% dialyzed FBS, 0.19 µM | 108 | 109 | 108
HPLM + 10% dialyzed FBS, 0.569 µM | 110 | 97.6 | 109
HPLM + 10% dialyzed FBS, 1.71 µM | 81.4 | 103 | 110
HPLM + 10% dialyzed FBS, 5.12 µM | 91.3 | 98.2 | 122
HPLM + 10% dialyzed FBS, 15.4 µM | 90.6 | 95 | 46.2
HPLM + 10% dialyzed FBS, 46.1 µM | 88.5 | 93.4 | 97.5
RPMI 5 mM glucose + 10% FBS, 0.000781 µM | 93.5 | 99.9 | 119
RPMI 5 mM glucose + 10% FBS, 0.00234 µM | 94.8 | 109 | 106
RPMI 5 mM glucose + 10% FBS, 0.00702 µM | 90.3 | 102 | 104
RPMI 5 mM glucose + 10% FBS, 0.0211 µM | 109 | 102 | 103
RPMI 5 mM glucose + 10% FBS, 0.0632 µM | 96 | 100 | 98.7
RPMI 5 mM glucose + 10% FBS, 0.19 µM | 100 | 99.9 | 102
RPMI 5 mM glucose + 10% FBS, 0.569 µM | 104 | 109 | 95.2
RPMI 5 mM glucose + 10% FBS, 1.71 µM | 89.6 | 103 | 108
RPMI 5 mM glucose + 10% FBS, 5.12 µM | 97.8 | 102 | 97.3
RPMI 5 mM glucose + 10% FBS, 15.4 µM | 96.1 | 98.4 | 45.1
RPMI 5 mM glucose + 10% FBS, 46.1 µM | 89.5 | 87 | 88.1
RPMI 5 mM glucose + 10% dialyzed FBS, 0.000781 µM | 106 | 95.9 | 110
RPMI 5 mM glucose + 10% dialyzed FBS, 0.00234 µM | 96.8 | 103 | 94.6
RPMI 5 mM glucose + 10% dialyzed FBS, 0.00702 µM | 104 | 98.7 | 102
RPMI 5 mM glucose + 10% dialyzed FBS, 0.0211 µM | 119 | 101 | 99
RPMI 5 mM glucose + 10% dialyzed FBS, 0.0632 µM | 97.8 | 101 | 98.6
RPMI 5 mM glucose + 10% dialyzed FBS, 0.19 µM | 95.3 | 97.2 | 84.2
RPMI 5 mM glucose + 10% dialyzed FBS, 0.569 µM | 100 | 94.4 | 116
RPMI 5 mM glucose + 10% dialyzed FBS, 1.71 µM | 85.2 | 91.6 | 89.1
RPMI 5 mM glucose + 10% dialyzed FBS, 5.12 µM | 93 | 102 | 101
RPMI 5 mM glucose + 10% dialyzed FBS, 15.4 µM | 98.4 | 99.6 | 30.4
RPMI 5 mM glucose + 10% dialyzed FBS, 46.1 µM | 80.8 | 90.2 | 84.2
